Results as given in ChEMBL document CHEMBL4011590, “Structure-activity relationship studies on 3,5-dinitrophenyl tetrazoles as antitubercular agents” (Eur J Med Chem, 2017).
pIC50: −log10 of the molar value. Converted amounts (≈) assume the structure as drawn.

Tests used:
Klebsiella pneumoniae [1] = assay: Antibacterial activity against Klebsiella pneumoniae HK11750/08 after 48 hrs by broth microdilution method; assay type: functional; conditions: HK11750/08, 48 h
[2] = system: Trichophyton mentagrophytes; assay: Antifungal activity against Trichophyton mentagrophytes 445 after 72 hrs by broth microdilution method; assay type: functional; conditions: Trichophyton mentagrophytes, 445, 72 h
Enterococcus sp. [3] = assay: Antibacterial activity against Enterococcus sp. HK14365/08 after 48 hrs by broth microdilution method; assay type: functional; conditions: HK14365/08, 48 h
Escherichia coli [4] = assay: Antibacterial activity against Escherichia coli ATCC 8739 after 24 hrs by broth microdilution method; assay type: functional; conditions: ATCC 8739, 24 h
Klebsiella pneumoniae [5] = assay: Antibacterial activity against extended spectrum beta-lactamase producing Klebsiella pneumoniae HK14368/08 after 24 hrs by broth microdilution method; assay type: functional; conditions: HK14368/08, 24 h
Aspergillus fumigatus [6] = assay: Antifungal activity against Aspergillus fumigatus 231 after 24 hrs by broth microdilution method; assay type: functional; conditions: Aspergillus fumigatus, 231, 24 h
Lichtheimia corymbifera [7] = assay: Antifungal activity against Absidia corymbifera 272 after 48 hrs by broth microdilution method; assay type: functional; conditions: Lichtheimia corymbifera, 272, 48 h
Mycobacterium avium [8] = assay: Antimycobacterial activity against Mycobacterium avium CNCTC My 330/80 after 14 days by micromethod; assay type: functional; conditions: CNCTC My 330/80, 336 h
Mycobacterium avium [9] = assay: Antimycobacterial activity against Mycobacterium avium CNCTC My 330/80 after 21 days by micromethod; assay type: functional; conditions: CNCTC My 330/80, 504 h
Staphylococcus aureus [10] = assay: Antibacterial activity against methicillin-resistant Staphylococcus aureus HK5996/08 after 48 hrs by broth microdilution method; assay type: functional; conditions: HK5996/08, 48 h
Klebsiella pneumoniae [11] = assay: Antibacterial activity against Klebsiella pneumoniae HK11750/08 after 24 hrs by broth microdilution method; assay type: functional; conditions: HK11750/08, 24 h
Mycobacterium kansasii [12] = assay: Antimycobacterial activity against Mycobacterium kansasii isolate 6509/96 after 21 days by micromethod; assay type: functional; conditions: isolate 6509/96, 504 h
Klebsiella pneumoniae [13] = assay: Antibacterial activity against extended spectrum beta-lactamase producing Klebsiella pneumoniae HK14368/08 after 48 hrs by broth microdilution method; assay type: functional; conditions: HK14368/08, 48 h
Nakaseomyces glabratus [14] = assay: Antifungal activity against Candida glabrata 20/I after 48 hrs by broth microdilution method; assay type: functional
Pichia kudriavzevii [15] = assay: Antifungal activity against Candida krusei E28 after 48 hrs by broth microdilution method; assay type: functional; conditions: E28, 48 h
Candida tropicalis [16] = assay: Antifungal activity against Candida tropicalis 156 after 24 hrs by broth microdilution method; assay type: functional; conditions: Candida tropicalis, 156, 24 h
Candida tropicalis [17] = assay: Antifungal activity against Candida tropicalis 156 after 48 hrs by broth microdilution method; assay type: functional; conditions: Candida tropicalis, 156, 48 h
Escherichia coli [18] = assay: Antibacterial activity against Escherichia coli ATCC 8739 after 48 hrs by broth microdilution method; assay type: functional; conditions: ATCC 8739, 48 h
CHO-K1 = assay: Cytotoxicity against CHOK1 cells after 24 hrs by MTT assay; assay type: cell-based; conditions: Cricetulus griseus, CHO-K1, 24 h
[19] = system: Staphylococcus epidermidis; assay: Antibacterial activity against Staphylococcus epidermidis HK6966/08 after 24 hrs by broth microdilution method; assay type: functional; conditions: HK6966/08, 24 h
Trichosporon asahii [20] = assay: Antifungal activity against Trichosporon asahii 1188 after 24 hrs by broth microdilution method; assay type: functional; conditions: Trichosporon asahii, 1188, 24 h
[21] = system: Trichophyton mentagrophytes; assay: Antifungal activity against Trichophyton mentagrophytes 445 after 120 hrs by broth microdilution method; assay type: functional; conditions: Trichophyton mentagrophytes, 445, 120 h
Trichosporon asahii [22] = assay: Antifungal activity against Trichosporon asahii 1188 after 48 hrs by broth microdilution method; assay type: functional; conditions: Trichosporon asahii, 1188, 48 h
Pseudomonas aeruginosa [23] = assay: Antibacterial activity against Pseudomonas aeruginosa ATCC 9027 after 24 hrs by broth microdilution method; assay type: functional; conditions: ATCC 9027, 24 h
Enterococcus sp. [24] = assay: Antibacterial activity against Enterococcus sp. HK14365/08 after 24 hrs by broth microdilution method; assay type: functional; conditions: HK14365/08, 24 h
Mycobacterium kansasii [25] = assay: Antimycobacterial activity against Mycobacterium kansasii isolate 6509/96 after 7 days by micromethod; assay type: functional; conditions: isolate 6509/96, 168 h
Candida albicans [26] = assay: Antifungal activity against Candida albicans ATCC 44859 after 24 hrs by broth microdilution method; assay type: functional; conditions: ATCC 44859, 24 h
Mycobacterium kansasii [27] = assay: Antimycobacterial activity against Mycobacterium kansasii CNCTC My 235/80 after 21 days by micromethod; assay type: functional; conditions: CNCTC My 235/80, 504 h
Staphylococcus aureus [28] = assay: Antibacterial activity against methicillin-resistant Staphylococcus aureus HK5996/08 after 24 hrs by broth microdilution method; assay type: functional; conditions: HK5996/08, 24 h
Nakaseomyces glabratus [29] = assay: Antifungal activity against Candida glabrata 20/I after 24 hrs by broth microdilution method; assay type: functional
Candida albicans [30] = assay: Antifungal activity against Candida albicans ATCC 44859 after 48 hrs by broth microdilution method; assay type: functional; conditions: ATCC 44859, 48 h
Staphylococcus aureus [31] = assay: Antibacterial activity against Staphylococcus aureus ATCC 6538 after 24 hrs by broth microdilution method; assay type: functional; conditions: ATCC 6538, 24 h
Mycobacterium kansasii [32] = assay: Antimycobacterial activity against Mycobacterium kansasii CNCTC My 235/80 after 14 days by micromethod; assay type: functional; conditions: CNCTC My 235/80, 336 h
[33] = system: Staphylococcus epidermidis; assay: Antibacterial activity against Staphylococcus epidermidis HK6966/08 after 48 hrs by broth microdilution method; assay type: functional; conditions: HK6966/08, 48 h
[34] = system: Mycobacterium tuberculosis; assay: Antimycobacterial activity against Mycobacterium tuberculosis H37Rv CNCTC My 331/88 after 14 days by micromethod; assay type: functional; conditions: H37Rv CNCTC My 331/88, 336 h
Staphylococcus aureus [35] = assay: Antibacterial activity against Staphylococcus aureus ATCC 6538 after 48 hrs by broth microdilution method; assay type: functional; conditions: ATCC 6538, 48 h
[36] = system: Mycobacterium tuberculosis; assay: Antimycobacterial activity against Mycobacterium tuberculosis H37Rv CNCTC My 331/88 after 21 days by micromethod; assay type: functional; conditions: H37Rv CNCTC My 331/88, 504 h
Aspergillus fumigatus [37] = assay: Antifungal activity against Aspergillus fumigatus 231 after 48 hrs by broth microdilution method; assay type: functional; conditions: Aspergillus fumigatus, 231, 48 h
Pseudomonas aeruginosa [38] = assay: Antibacterial activity against Pseudomonas aeruginosa ATCC 9027 after 48 hrs by broth microdilution method; assay type: functional; conditions: ATCC 9027, 48 h
Mycobacterium kansasii [39] = assay: Antimycobacterial activity against Mycobacterium kansasii isolate 6509/96 after 14 days by micromethod; assay type: functional; conditions: isolate 6509/96, 336 h
Mycobacterium kansasii [40] = assay: Antimycobacterial activity against Mycobacterium kansasii CNCTC My 235/80 after 7 days by micromethod; assay type: functional; conditions: CNCTC My 235/80, 168 h
Pichia kudriavzevii [41] = assay: Antifungal activity against Candida krusei E28 after 24 hrs by broth microdilution method; assay type: functional; conditions: E28, 24 h
Lichtheimia corymbifera [42] = assay: Antifungal activity against Absidia corymbifera 272 after 24 hrs by broth microdilution method; assay type: functional; conditions: Lichtheimia corymbifera, 272, 24 h

In the case of Cc1ccc(Cn2nnc(-c3cc([N+](=O)[O-])cc([N+](=O)[O-])c3)n2)cc1, the MIC (Klebsiella pneumoniae [1]) was > 500 µM, the MIC [2] was > 500 µM and the MIC (Enterococcus sp. [3]) was > 500 µM. For the same compound, the MIC (Escherichia coli [4]) was > 500 µM, the MIC (Klebsiella pneumoniae [5]) was > 500 µM and the MIC (Aspergillus fumigatus [6]) was > 500 µM. For the same compound, the MIC (Lichtheimia corymbifera [7]) was > 500 µM, the MIC99 (Mycobacterium avium [8]) was 8 µM (≈ 2.72 µg/mL) and the MIC99 (Mycobacterium avium [9]) was 16 µM (≈ 5.44 µg/mL). For the same compound, the MIC (Staphylococcus aureus [10]) was > 500 µM, the MIC (Klebsiella pneumoniae [11]) was > 500 µM and the MIC99 (Mycobacterium kansasii [12]) was 0.5 µM (≈ 0.17 µg/mL). The MIC (Klebsiella pneumoniae [13]) was > 500 µM, the MIC (Nakaseomyces glabratus [14]) was > 500 µM and the MIC (Pichia kudriavzevii [15]) was > 500 µM. The MIC (Candida tropicalis [16]) was > 500 µM, the MIC (Candida tropicalis [17]) was > 500 µM and the MIC (Escherichia coli [18]) was > 500 µM. The pIC50 (CHO-K1) was 3.70, the MIC [19] was 62.5 µM (≈ 21.3 µg/mL) and the MIC (Trichosporon asahii [20]) was > 500 µM. The MIC [21] was > 500 µM, the MIC (Trichosporon asahii [22]) was > 500 µM and the MIC (Pseudomonas aeruginosa [23]) was > 500 µM. For the same compound, the MIC (Enterococcus sp. [24]) was > 500 µM, the MIC99 (Mycobacterium kansasii [25]) was 0.25 µM (≈ 0.0851 µg/mL) and the MIC (Candida albicans [26]) was > 500 µM. For the same compound, the MIC99 (Mycobacterium kansasii [27]) was 1 µM (≈ 0.34 µg/mL), the MIC (Staphylococcus aureus [28]) was > 500 µM and the MIC (Nakaseomyces glabratus [29]) was > 500 µM. The MIC (Candida albicans [30]) was > 500 µM, the MIC (Staphylococcus aureus [31]) was 31.2 µM (≈ 10.6 µg/mL) and the MIC99 (Mycobacterium kansasii [32]) was 1 µM (≈ 0.34 µg/mL). For the same compound, the MIC [33] was 62.5 µM (≈ 21.3 µg/mL), the MIC99 [34] was 0.125 µM (≈ 0.0425 µg/mL) and the MIC (Staphylococcus aureus [35]) was 31.2 µM (≈ 10.6 µg/mL). For the same compound, the MIC99 [36] was 0.125 µM (≈ 0.0425 µg/mL), the MIC (Aspergillus fumigatus [37]) was > 500 µM and the MIC (Pseudomonas aeruginosa [38]) was > 500 µM. The MIC99 (Mycobacterium kansasii [39]) was 0.5 µM (≈ 0.17 µg/mL), the MIC99 (Mycobacterium kansasii [40]) was 0.5 µM (≈ 0.17 µg/mL) and the MIC (Pichia kudriavzevii [41]) was > 500 µM. For the same compound, the MIC (Lichtheimia corymbifera [42]) was > 500 µM.
